ChEMBL document CHEMBL5614421, “Structure-activity relationship study of Pseudellone C as anti-glioma agents by targeting TNF/TNFR signaling pathway” (Eur J Med Chem, 2024)

Assays:
U-87 MG [1] = experiment: Antiproliferative activity against human U-87 MG cells assessed as inhibition of cell growth incubated for 68 hrs by CCK-8 assay; format: functional, cell-based, U-87MG ATCC
LN-229 [2] = experiment: Antiproliferative activity against human LN-229 cells assessed as inhibition of cell growth incubated for 68 hrs by CCK-8 assay; format: functional, cell-based; conditions: LN-229, 68 h
U-87 MG [3] = experiment: Induction of apoptosis in human U-87 MG cells assessed as viable cells at 5 uM incubated for 24 hrs by Annexin V-APC/7-AAD staining based flow cytometric analysis (reference value: 85 %); format: functional, U-87MG ATCC; conditions: read-out: Activity
U-87 MG [4] = experiment: Induction of apoptosis in human U-87 MG cells assessed as early apoptotic cells at 5 uM incubated for 24 hrs by Annexin V-APC/7-AAD staining based flow cytometric analysis (reference value: 3.44 %); format: functional, U-87MG ATCC
U-87 MG [5] = experiment: Induction of apoptosis in human U-87 MG cells assessed as late apoptotic cells at 5 uM incubated for 24 hrs by Annexin V-APC/7-AAD staining based flow cytometric analysis (reference value: 7.7 %); format: functional, U-87MG ATCC
U-87 MG [6] = experiment: Induction of apoptosis in human U-87 MG cells assessed as necrotic cells at 5 uM incubated for 24 hrs by Annexin V-APC/7-AAD staining based flow cytometric analysis (reference value: 3.85 %); format: functional, U-87MG ATCC
LN-229 [7] = experiment: Induction of apoptosis in human LN-229 cells assessed as viable cells at 5 uM incubated for 24 hrs by Annexin V-APC/7-AAD staining based flow cytometric analysis (reference value: 92.3 %); format: functional; conditions: read-out: Activity
LN-229 [8] = experiment: Induction of apoptosis in human LN-229 cells assessed as early apoptotic cells at 5 uM incubated for 24 hrs by Annexin V-APC/7-AAD staining based flow cytometric analysis (reference value: 0.91 %); format: functional
LN-229 [9] = experiment: Induction of apoptosis in human LN-229 cells assessed as late apoptotic cells at 5 uM incubated for 24 hrs by Annexin V-APC/7-AAD staining based flow cytometric analysis (reference value: 4.86 %); format: functional
LN-229 [10] = experiment: Induction of apoptosis in human LN-229 cells assessed as necrotic cells at 5 uM incubated for 24 hrs by Annexin V-APC/7-AAD staining based flow cytometric analysis (reference value: 1.95 %); format: functional

| IC50 (U-87 MG [1]) | SMILES | IC50 (LN-229 [2]) | other results |
| --- | --- | --- | --- |
| > 50 µM | CC(C(=O)N[C@@H](Cc1c[nH]c2ccccc12)C(=O)NCC1CC1)(c1c[nH]c2ccccc12)c1c[nH]c2ccccc12 | > 50 µM | – |
| > 50 µM | CC(C(=O)N[C@@H](Cc1c[nH]c2ccccc12)C(=O)NC1CC1)(c1c[nH]c2ccccc12)c1c[nH]c2ccccc12 | > 50 µM | – |
| 46.3 µM | CNC(=O)[C@H](Cc1c[nH]c2ccccc12)NC(=O)C(C)(c1c[nH]c2ccccc12)c1c[nH]c2ccccc12 | 23.2 µM | – |
| > 50 µM | CC(C(=O)N[C@@H](Cc1c[nH]c2ccccc12)C(=O)O)(c1c[nH]c2ccccc12)c1c[nH]c2ccccc12 | > 50 µM | – |
| 21.7 µM | CCCCOC(=O)[C@H](Cc1c[nH]c2ccccc12)NC(=O)C(C)(c1c[nH]c2ccccc12)c1c[nH]c2ccccc12 | 20.2 µM | – |
| 12 µM | CCCCCCCCCCCCNC(=O)[C@H](Cc1c[nH]c2ccccc12)NC(=O)C(C)(c1c[nH]c2ccccc12)c1c[nH]c2ccccc12 | 10.8 µM | – |
| 12.3 µM | CCCCCCCCCOC(=O)[C@H](Cc1c[nH]c2ccccc12)NC(=O)C(C)(c1c[nH]c2ccccc12)c1c[nH]c2ccccc12 | 12.6 µM | – |
| 168 µM | CNC(=O)[C@@H](NC(=O)C(C)(c1c[nH]c2ccccc12)c1c[nH]c2ccccc12)C(=O)c1c[nH]c2ccccc12 | > 100 µM | – |
| > 50 µM | CCCCCCCCCCCCCCNC(=O)[C@H](Cc1c[nH]c2ccccc12)NC(=O)C(C)(c1c[nH]c2ccccc12)c1c[nH]c2ccccc12 | > 50 µM | – |
| 10.7 µM | CCCCCCCOC(=O)[C@H](Cc1c[nH]c2ccccc12)NC(=O)C(C)(c1c[nH]c2ccccc12)c1c[nH]c2ccccc12 | 10.5 µM | – |
| 22.1 µM | COC(=O)[C@H](Cc1c[nH]c2ccccc12)NC(=O)C(C)(c1c[nH]c2cccc(F)c12)c1c[nH]c2cccc(F)c12 | 10.8 µM | – |
| 15 µM | COC(=O)[C@H](Cc1c[nH]c2ccccc12)NC(=O)C(C)(c1c[nH]c2c(F)cccc12)c1c[nH]c2c(F)cccc12 | 5.52 µM | – |
| 7.34 µM | COC(=O)[C@H](Cc1c[nH]c2ccccc12)NC(=O)C(C)(c1c[nH]c2c(Br)cccc12)c1c[nH]c2c(Br)cccc12 | 8.71 µM | – |
| 8.3 µM | CC(C)CCCOC(=O)[C@H](Cc1c[nH]c2ccccc12)NC(=O)C(C)(c1c[nH]c2ccccc12)c1c[nH]c2ccccc12 | 12.2 µM | – |
| 19.9 µM | CCCCCCCCCCOC(=O)[C@H](Cc1c[nH]c2ccccc12)NC(=O)C(C)(c1c[nH]c2ccccc12)c1c[nH]c2ccccc12 | 13.1 µM | – |
| 10.7 µM | CCCCCCCCNC(=O)[C@H](Cc1c[nH]c2ccccc12)NC(=O)C(C)(c1c[nH]c2ccccc12)c1c[nH]c2ccccc12 | 16.1 µM | – |
| – | FC(F)(F)c1nnc2c(Sc3ccccc3)nc3ccc(Cl)cc3n12 | – | viability at 5 µM (U-87 MG [3]): 82.7%; Activity (U-87 MG [4]): 10%; Activity (U-87 MG [5]): 5.1%; Activity (U-87 MG [6]): 2.24%; viability at 5 µM (LN-229 [7]): 76.1%; Activity (LN-229 [8]): 14.6%; Activity (LN-229 [9]): 8.42%; Activity (LN-229 [10]): 0.97% |
| > 50 µM | CC(C(=O)N[C@@H](Cc1c[nH]c2ccccc12)C(=O)NC[C@H]1CCCO1)(c1c[nH]c2ccccc12)c1c[nH]c2ccccc12 | 21.3 µM | – |
| 9.68 µM | CCCCCCCCCNC(=O)[C@H](Cc1c[nH]c2ccccc12)NC(=O)C(C)(c1c[nH]c2ccccc12)c1c[nH]c2ccccc12 | 7.17 µM | – |
| 17.3 µM | CC(C)CCOC(=O)[C@H](Cc1c[nH]c2ccccc12)NC(=O)C(C)(c1c[nH]c2ccccc12)c1c[nH]c2ccccc12 | 20.4 µM | – |
| 46.1 µM | CC(C(=O)N[C@@H](Cc1c[nH]c2ccccc12)C(=O)NCc1ccco1)(c1c[nH]c2ccccc12)c1c[nH]c2ccccc12 | 17.9 µM | – |
| 41.3 µM | Cc1ccc(CNC(=O)[C@H](Cc2c[nH]c3ccccc23)NC(=O)C(C)(c2c[nH]c3ccccc23)c2c[nH]c3ccccc23)cc1 | > 50 µM | – |
| 4.81 µM | COC(=O)[C@H](Cc1c[nH]c2ccccc12)NC(=O)C(C)(c1c[nH]c2cc(Br)ccc12)c1c[nH]c2cc(Br)ccc12 | 6.62 µM | – |

| IC50 (U-87 MG [1]) | SMILES | IC50 (LN-229 [2]) | other results |
| --- | --- | --- | --- |
| 23.5 µM | CC(C)OC(=O)[C@H](Cc1c[nH]c2ccccc12)NC(=O)C(C)(c1c[nH]c2ccccc12)c1c[nH]c2ccccc12 | > 50 µM | – |
| > 50 µM | COc1ccc(CNC(=O)C(C)(c2c[nH]c3ccccc23)c2c[nH]c3ccccc23)cc1 | > 50 µM | – |
| 16.9 µM | CC(C)CCNC(=O)[C@H](Cc1c[nH]c2ccccc12)NC(=O)C(C)(c1c[nH]c2ccccc12)c1c[nH]c2ccccc12 | 12.7 µM | – |
| > 50 µM | COCCCNC(=O)[C@H](Cc1c[nH]c2ccccc12)NC(=O)C(C)(c1c[nH]c2ccccc12)c1c[nH]c2ccccc12 | 19.4 µM | – |
| 54.9 µM | CCCCCCCCCCCCOC(=O)[C@H](Cc1c[nH]c2ccccc12)NC(=O)C(C)(c1c[nH]c2ccccc12)c1c[nH]c2ccccc12 | > 50 µM | – |
| > 50 µM | CCCCCCNC(=O)C(C)(c1c[nH]c2ccccc12)c1c[nH]c2ccccc12 | > 50 µM | – |
| > 50 µM | CC(C(=O)O)(c1c[nH]c2ccccc12)c1c[nH]c2ccccc12 | > 50 µM | – |
| 19.4 µM | CCCCCNC(=O)[C@H](Cc1c[nH]c2ccccc12)NC(=O)C(C)(c1c[nH]c2ccccc12)c1c[nH]c2ccccc12 | 18.8 µM | – |
| > 50 µM | CC(C(=O)N[C@@H](Cc1c[nH]c2ccccc12)C(=O)NC[C@@H]1CCCO1)(c1c[nH]c2ccccc12)c1c[nH]c2ccccc12 | 23.5 µM | – |
| 7.23 µM | CCCCCCCCCCNC(=O)[C@H](Cc1c[nH]c2ccccc12)NC(=O)C(C)(c1c[nH]c2ccccc12)c1c[nH]c2ccccc12 | 6.07 µM | – |
| > 50 µM | CC(C(=O)N[C@@H](Cc1c[nH]c2ccccc12)C(=O)NCC1CCOCC1)(c1c[nH]c2ccccc12)c1c[nH]c2ccccc12 | > 50 µM | – |
| 59.3 µM | COC(=O)[C@H](Cc1c[nH]c2ccccc12)NC(=O)C(C)(c1cn(C)c2ccccc12)c1cn(C)c2ccccc12 | > 50 µM | – |
| > 50 µM | CCCCCCCNC(=O)C(C)(c1c[nH]c2ccccc12)c1c[nH]c2ccccc12 | > 50 µM | – |
| 113 µM | Cn1nnc2c(C(N)=O)ncn2c1=O [TEMOZOLOMIDE] | > 500 µM | – |
| 7.54 µM | CCCCCCOC(=O)[C@H](Cc1c[nH]c2ccccc12)NC(=O)C(C)(c1c[nH]c2ccccc12)c1c[nH]c2ccccc12 | 12.5 µM | – |
| 36.4 µM | C#CCNC(=O)[C@H](Cc1c[nH]c2ccccc12)NC(=O)C(C)(c1c[nH]c2ccccc12)c1c[nH]c2ccccc12 | 17.4 µM | – |
| 17 µM | COC(=O)[C@H](Cc1c[nH]c2ccccc12)NC(=O)C(C)(c1c[nH]c2ccccc12)c1c[nH]c2ccccc12 | 36.9 µM | – |
| 7.74 µM | COC(=O)[C@H](Cc1c[nH]c2ccccc12)NC(=O)C(C)(c1c[nH]c2ccc(C(F)(F)F)cc12)c1c[nH]c2ccc(C(F)(F)F)cc12 | 5.52 µM | – |
| > 50 µM | CC(C)CNC(=O)[C@H](Cc1c[nH]c2ccccc12)NC(=O)C(C)(c1c[nH]c2ccccc12)c1c[nH]c2ccccc12 | > 50 µM | – |
| > 50 µM | Cc1ccc(CNC(=O)C(C)(c2c[nH]c3ccccc23)c2c[nH]c3ccccc23)cc1 | > 50 µM | – |
| 16 µM | CCCCCCNC(=O)[C@H](Cc1c[nH]c2ccccc12)NC(=O)C(C)(c1c[nH]c2ccccc12)c1c[nH]c2ccccc12 | 25.5 µM | – |
| 29.2 µM | CC(C(=O)N[C@@H](Cc1c[nH]c2ccccc12)C(=O)OCC1CCOCC1)(c1c[nH]c2ccccc12)c1c[nH]c2ccccc12 | > 50 µM | – |
